Columns and labels:
[1] = tested on: patients with diabetes mellitus and eGFR <90 mL/min/1.73 m^2 for ≥3 months; assay: ANCHOR post-hoc (diabetes mellitus, eGFR <90): adverse events and renal parameters; format: in vivo, human
Procedure: Safety assessments will include adverse events, clinical laboratory measurements (chemistry, hematology, and urinalysis), 12-lead electrocardiograms (ECGs), vital signs, and physical examinations.
CVD-related (e.g., atherogenic) parameters were analyzed in a post-hoc study of 198 patients from the multi-center, placebo-controlled, randomized double-blind, 12-week study described in Example 1. These 198 patients have reduced kidney reduced function (e.g., eGFR<90 mL/min/1.73 m^2 for ≥3 months) and diabetes mellitus.
In this study, 6 patients in the placebo group discontinued (i.e., withdrawal with consent [n=2]; adverse event [n=2]; death [n=1]; other reason [n=1] and 4 patients from the 4 g/day group discontinued (i.e., adverse event [n=3] and other reason [n=1]). The death in the placebo group was due to myocardial infarction and not considered to be assigned to the investigational agent.

[2] = Essential fatty acids in plasma and RBC by gas chromatography, 6-week AAMI study; format: in vivo, human
Procedure: Blood samples (10 mL) were collected at Visit 1 (screening) and at Visits 4, 5, and 6. Analysis was performed by MSR Lipid Analysis, Scottish Crop Research Institute, Dundee, UK. The screening sample acted as baseline for the EFA measurements. Lipid was extracted from plasma, serum, and RBC suspensions and converted into fatty acid methyl esters which were analyzed by gas chromatography to give fatty acid profiles as micrograms fatty acid per gram of sample (mFA/g) and normalized area percent.
RBC and plasma EFA data were collected at baseline, Day 14, 28, and 42 and summarized by visit for each treatment group. Change from baseline and percent change from baseline were also summarized. ANCOVA comparison of E-EPA dose groups and E-EPA versus placebo was performed.
Notable changes for these parameters occurred in the E-EPA treatment groups at Days 14, 28, and 42 compared to placebo.

CC/C=C\C/C=C\C/C=C\C/C=C\C/C=C\CCCC(=O)OCC [E-EPA, ethyl eicosapentaenoate]
renal function ([1]; 4 g/day): no negative impact on renal function
Patients With TEAEs: Any TEAE ([1]; 4 g/day (n = 100)): 49 (49.0) n (%)
Patients With TEAEs: Arthralgia ([1]; 4 g/day (n = 100)): 1 (1.0) n (%)
Patients With TEAEs: Diarrhea ([1]; 4 g/day (n = 100)): 5 (5.0) n (%)
Patients With TEAEs: Nasopharyngitis ([1]; 4 g/day (n = 100)): 1 (1.0) n (%)
Patients With TEAEs: Nausea ([1]; 4 g/day (n = 100)): 3 (3.0) n (%)
patients discontinued due to adverse event ([1]; 4 g/day group, 4 discontinued in total): 3 n
serum creatinine after 12 weeks ([1]; 4 g/day, before 0.9 mg/dL, no significant change): 0.9 mg/dL
BUN after 12 weeks ([1]; 4 g/day, before 18 mg/dL, no significant change): 18 mg/dL
albumin after 12 weeks ([1]; 4 g/day, before 4.5 g/dL, no significant change): 4.5 g/dL
eGFR after 12 weeks ([1]; 4 g/day, before 75.4, no significant change): 79.1 mL/min/1.73 m^2
AA Plasma Mean change from Baseline ([2]; 1 g daily, Day 14): -9.7 µg/g
AA RBC Mean change from Baseline ([2]; 1 g daily, Day 14): -8.1 µg/g
DGLA Plasma Mean change from Baseline ([2]; 1 g daily, Day 14): -10.4 µg/g
DGLA RBC Mean change from Baseline ([2]; 1 g daily, Day 14): -2.7 µg/g
DHA Plasma Mean change from Baseline ([2]; 1 g daily, Day 14): -6.4 µg/g
DHA RBC Mean change from Baseline ([2]; 1 g daily, Day 14): -4.6 µg/g
DPAn-3 Plasma Mean change from Baseline ([2]; 1 g daily, Day 14): 7.5 µg/g
DPAn-3 RBC Mean change from Baseline ([2]; 1 g daily, Day 14): 0.9 µg/g
AA Plasma Mean change from Baseline ([2]; 1 g daily, Day 28): -11.3 µg/g
AA RBC Mean change from Baseline ([2]; 1 g daily, Day 28): -17.0 µg/g
DGLA Plasma Mean change from Baseline ([2]; 1 g daily, Day 28): -10.6 µg/g
DGLA RBC Mean change from Baseline ([2]; 1 g daily, Day 28): -3.8 µg/g
DHA Plasma Mean change from Baseline ([2]; 1 g daily, Day 28): -6.6 µg/g
DHA RBC Mean change from Baseline ([2]; 1 g daily, Day 28): -6.4 µg/g
DPAn-3 Plasma Mean change from Baseline ([2]; 1 g daily, Day 28): 8.9 µg/g
DPAn-3 RBC Mean change from Baseline ([2]; 1 g daily, Day 28): 3.3 µg/g
AA Plasma Mean change from Baseline ([2]; 1 g daily, Day 42): -8.7 µg/g
AA RBC Mean change from Baseline ([2]; 1 g daily, Day 42): -14.2 µg/g
DGLA Plasma Mean change from Baseline ([2]; 1 g daily, Day 42): -9.4 µg/g
DGLA RBC Mean change from Baseline ([2]; 1 g daily, Day 42): -3.5 µg/g
DHA Plasma Mean change from Baseline ([2]; 1 g daily, Day 42): -5.4 µg/g
DHA RBC Mean change from Baseline ([2]; 1 g daily, Day 42): -7.0 µg/g
DPAn-3 Plasma Mean change from Baseline ([2]; 1 g daily, Day 42): 11.3 µg/g
DPAn-3 RBC Mean change from Baseline ([2]; 1 g daily, Day 42): 6.5 µg/g
AA Plasma Baseline Mean ([2]; 1 g daily, baseline): 202.5 µg/g
AA RBC Baseline Mean ([2]; 1 g daily, baseline): 171.2 µg/g
DGLA Plasma Baseline Mean ([2]; 1 g daily, baseline): 51.2 µg/g
DGLA RBC Baseline Mean ([2]; 1 g daily, baseline): 23.0 µg/g
DHA Plasma Baseline Mean ([2]; 1 g daily, baseline): 73.1 µg/g
DHA RBC Baseline Mean ([2]; 1 g daily, baseline): 66.5 µg/g
DPAn-3 Plasma Baseline Mean ([2]; 1 g daily, baseline): 21.1 µg/g
DPAn-3 RBC Baseline Mean ([2]; 1 g daily, baseline): 34.1 µg/g
AA Plasma LS Mean, 1 or 2 g versus 4 g ([2]; 1 g versus 4 g): 4.2 µg/g
AA RBC LS Mean, 1 or 2 g versus 4 g ([2]; 1 g versus 4 g): 8.4 µg/g
DGLA Plasma LS Mean, 1 or 2 g versus 4 g ([2]; 1 g versus 4 g): 3.7 µg/g
DGLA RBC LS Mean, 1 or 2 g versus 4 g ([2]; 1 g versus 4 g): 1.5 µg/g
DHA Plasma LS Mean, 1 or 2 g versus 4 g ([2]; 1 g versus 4 g): -0.8 µg/g
DHA RBC LS Mean, 1 or 2 g versus 4 g ([2]; 1 g versus 4 g): 1.0 µg/g
DPAn-3 Plasma LS Mean, 1 or 2 g versus 4 g ([2]; 1 g versus 4 g): -15.1 µg/g
DPAn-3 RBC LS Mean, 1 or 2 g versus 4 g ([2]; 1 g versus 4 g): -6.2 µg/g
AA Plasma Mean change from Baseline ([2]; 2 g daily, Day 14): -13.9 µg/g
AA RBC Mean change from Baseline ([2]; 2 g daily, Day 14): -3.1 µg/g
DGLA Plasma Mean change from Baseline ([2]; 2 g daily, Day 14): -14.1 µg/g
DGLA RBC Mean change from Baseline ([2]; 2 g daily, Day 14): -2.6 µg/g
DHA Plasma Mean change from Baseline ([2]; 2 g daily, Day 14): -5.4 µg/g
DHA RBC Mean change from Baseline ([2]; 2 g daily, Day 14): -2.0 µg/g
DPAn-3 Plasma Mean change from Baseline ([2]; 2 g daily, Day 14): 17.4 µg/g
DPAn-3 RBC Mean change from Baseline ([2]; 2 g daily, Day 14): 5.6 µg/g
AA Plasma Mean change from Baseline ([2]; 2 g daily, Day 28): 21.6 µg/g
AA RBC Mean change from Baseline ([2]; 2 g daily, Day 28): -14.1 µg/g
DGLA Plasma Mean change from Baseline ([2]; 2 g daily, Day 28): -16.2 µg/g
DGLA RBC Mean change from Baseline ([2]; 2 g daily, Day 28): -4.5 µg/g

— US20230248741A1, “Compositions and Methods for Lowering Triglycerides in a Subject with Reduced Kidney Function and Diabetes Mellitus” (Amarin Pharmaceuticals Ireland Limited, priority 2018, published 2023)
